Structures are written as SMILES.

The source of these data is BindingDB's records for doi:10.7270/Q2959G0B (Nmmlsc, 2009).

The target in this experiment is Ras-related C3 botulinum toxin substrate 1 (Mus musculus, UniProt P63001). Put plainly: Rac1 wildtype GTP binding inhibitors, SAR follow-up, biochemical, pyrazoline analogs, multiplex, flow cytometry, Ki (AID 2055).
The mark [1] stands for this setting: inactive by the depositor's call.

A word on the EC50: it is the concentration that produces a half-maximal response. Consider `Clc1ccc(N2N=C(c3ccccc3)CC2c2ccccc2)cc1` (configuration not stated), for which, under setting [1], the response was half-maximal at 30 µM (EC50). This counts as double-digit micromolar.

As to `COc1ccc(C2CC(c3ccc(F)cc3)=NN2c2cccc(F)c2)cc1OC` (configuration not stated), under setting [1], the EC50 worked out at 0.027 µM.

Regarding `COc1ccc(C2=NN(c3ccccc3)C(c3ccc(OC)c(OC)c3C(=O)O)C2)cc1` (configuration not stated) [UNM-0000305848], the response under setting [1] was half-maximal at 30 µM (EC50).

Under setting [1], `NS(=O)(=O)c1ccc(N2N=C(c3ccccc3)CC2c2ccc(Br)cc2)cc1` (configuration not stated) [UNM-0000306160] yielded an EC50 of 30 µM. That is a double-digit micromolar value.

Compound `COc1ccc(C2C[C-](c3ccccc3)N=[N+]2c2ccc([N+](=O)[O-])cc2)cc1` (configuration not stated) [3-(4-methoxyphenyl)-2-(4-nitrophenyl)-5-phenyl-3,4-dihydropyrazole] displayed an EC50 under setting [1] of 30 µM.

For `FC(F)(F)c1ccccc1C1CC(c2ccc(Br)cc2)=NN1c1ccccc1` (configuration not stated) [5-(4-bromophenyl)-2-phenyl-3-[2-(trifluoromethyl)phenyl]-3,4-dihydropyrazole], the EC50 under setting [1] came to 30 µM.

Under setting [1], `O=C(O)c1ccc(N2N=C(c3ccccc3)CC2c2ccccc2)cc1` (configuration not stated) displayed an EC50 of 54.7 µM.

In turn, `COc1ccc(C2=NN(c3ccc(Cl)c(Cl)c3)C(c3ccc(OC)cc3)C2)cc1` (configuration not stated) [2-(3,4-dichlorophenyl)-3,5-bis(4-methoxyphenyl)-3,4-dihydropyrazole] displayed an EC50 under setting [1] of 30 µM.

In turn, `COc1ccc(C2=NN(c3ccccc3F)C(c3ccc(F)cc3)C2)cc1` (configuration not stated) [UNM-0000305860] displayed an EC50 under setting [1] of 30 µM.

`COc1ccc(C2CC(c3ccccc3F)=NN2c2ccc(S(N)(=O)=O)cc2)cc1` (configuration not stated) [UNM-0000306110] gave an EC50 under setting [1] of 30 µM. That is a double-digit micromolar value.

Consider `Cc1ccc(C2CC(c3ccccc3)=NN2c2ccc(S(N)(=O)=O)cc2)cc1` (configuration not stated), for which, under setting [1], the half-maximal effective concentration (EC50) was 30 µM.

With `Brc1ccc(N2N=C(c3ccccc3)CC2c2ccccc2)cc1` (configuration not stated), under setting [1], a half-maximal effect (EC50) was put at 9.53 µM.

Under setting [1], `NS(=O)(=O)c1ccc(N2N=C(c3ccccc3)CC2c2ccccc2Cl)cc1` (configuration not stated) [KUC103446N] returned an EC50 of 30 µM. Compared with the last compound, the EC50 is about 3.1-fold higher.

Regarding `COc1ccc(C2CC(c3ccc(Cl)cc3)=NN2c2ccccc2)cc1OC` (configuration not stated) [UNM-0000305858], under setting [1], the EC50 came out at 30 µM.

`COc1ccc(C2=NN(c3ccccc3)C(c3ccccc3C(F)(F)F)C2)cc1` (configuration not stated) showed an EC50 under setting [1] of 30 µM.

`COc1ccc(-c2cc(-c3ccccc3)nn2-c2ccc(S(N)(=O)=O)cc2)cc1` [4-[5-(4-methoxyphenyl)-3-phenylpyrazol-1-yl]benzenesulfonamide]: the EC50 under setting [1] came out at 30 µM.

Compound `Cc1ccccc1[N+]1=N[C-](c2ccccc2)CC1c1cccc([N+](=O)[O-])c1` (configuration not stated) [UNM-0000305854] displayed an EC50 under setting [1] of 30 µM.

`COc1ccc(C2CC(c3ccc(F)cc3)=NN2c2cc(Cl)ccc2Cl)cc1` (configuration not stated) [2-(2,5-dichlorophenyl)-5-(4-fluorophenyl)-3-(4-methoxyphenyl)-3,4-dihydropyrazole] came in with an EC50 under setting [1] of 0.089 µM.

In the case of `Cc1cccc(C2CC(c3ccccc3)=NN2c2ccc(S(N)(=O)=O)cc2)c1` (configuration not stated), the response under setting [1] was half-maximal at 30 µM (EC50).

`COc1ccc(C2CC(C)=NN2c2ccc(S(N)(=O)=O)cc2)cc1` (configuration not stated) [4-[3-(4-methoxyphenyl)-5-methyl-3,4-dihydropyrazol-2-yl]benzenesulfonamide] showed an EC50 under setting [1] of 30 µM.

Turning to `COc1ccc(C2CC(c3cccs3)=NN2c2ccc(S(N)(=O)=O)cc2)cc1` (configuration not stated) [KUC103438N], the response under setting [1] was half-maximal at 30 µM (EC50).

Consider `NS(=O)(=O)c1ccc(N2N=C(c3ccccc3)CC2c2cccc(Br)c2)cc1` (configuration not stated) [UNM-0000306147], for which the EC50 under setting [1] was determined as 30 µM. This counts as double-digit micromolar.

`COc1ccc(C2CC(c3cccc(N(C)C)c3)=NN2c2ccc(S(N)(=O)=O)cc2)cc1` (configuration not stated): under setting [1], it took 30 µM to reach a half-maximal effect (EC50).

In turn, `COc1ccc(C2CC(c3ccc(F)cc3)=NN2c2ccc(S(N)(=O)=O)cc2)cc1` (configuration not stated) [4-[5-(4-fluorophenyl)-3-(4-methoxyphenyl)-3,4-dihydropyrazol-2-yl]benzenesulfonamide] showed an EC50 under setting [1] of 30 µM.

`COc1ccc(C2CC(c3ccccc3Cl)=NN2c2ccc(S(N)(=O)=O)cc2)cc1` (configuration not stated) [4-[5-(2-chlorophenyl)-3-(4-methoxyphenyl)-3,4-dihydropyrazol-2-yl]benzenesulfonamide] yielded an EC50 under setting [1] of 30 µM.

For the compound `COc1ccc(C2=NN(c3ccc(S(N)(=O)=O)cc3)C(c3ccc(OC)cc3)C2)cc1` (configuration not stated) [4-[3,5-bis(4-methoxyphenyl)-3,4-dihydropyrazol-2-yl]benzenesulfonamide], under setting [1], the EC50 is 30 µM.

Consider `COc1ccc(C2CC(c3ccc(N(C)C)cc3)=NN2c2ccc(S(N)(=O)=O)cc2)cc1` (configuration not stated) [KUC103422N], for which the EC50 under setting [1] turned out to be 30 µM. That is a double-digit micromolar value.

For the compound `CN(C)c1ccc(C2C[C-](c3ccccc3)N=[N+]2c2ccc([N+](=O)[O-])cc2)cc1` (configuration not stated), the EC50 under setting [1] amounted to 20.4 µM.

Turning to `COc1ccc(C2CC(c3cccnc3)=NN2c2ccc(S(N)(=O)=O)cc2)cc1` (configuration not stated), a half-maximal response under setting [1] (EC50) required 30 µM.

In turn, `COc1ccc(C2CC(c3cccc(C)c3)=NN2c2ccc(S(N)(=O)=O)cc2)cc1` (configuration not stated) [UNM-0000306153] had an EC50 under setting [1] of 30 µM.

The compound `COc1ccc(C2CC(c3ccc(F)cc3)=NN2c2ccccc2)cc1OC` (configuration not stated) [UNM-0000305864] came in with an EC50 under setting [1] of 30 µM.

In turn, `COc1ccccc1N1N=C(c2ccccc2)CC1c1ccccc1` (configuration not stated) [UNM-0000305855] yielded an EC50 under setting [1] of 30 µM. This lies in the double-digit micromolar range.

For the compound `O=S(=O)(O)c1ccc(N2N=C(c3ccccc3)CC2c2ccccc2)cc1` (configuration not stated) [UNM-0000305834], it took 30 µM to reach a half-maximal effect (EC50).

In the case of `COc1ccc(C2CC(c3ccccc3OC)=NN2c2ccc(S(N)(=O)=O)cc2)cc1` (configuration not stated), the EC50 under setting [1] amounted to 30 µM.

With `Cc1ccccc1C1CC(c2ccccc2)=NN1c1ccc(S(N)(=O)=O)cc1` (configuration not stated) [UNM-0000306148], under setting [1], a half-maximal effect (EC50) was put at 30 µM.

For the compound `Cc1ccc(-c2cc(C(F)(F)F)nn2-c2ccc(S(N)(=O)=O)cc2)cc1` [Celecoxib], under setting [1], the EC50 was 30 µM.

In turn, `COc1ccc(C2CC(c3ccccc3Br)=NN2c2ccc(S(N)(=O)=O)cc2)cc1` (configuration not stated) [UNM-0000306112] showed an EC50 under setting [1] of 30 µM.

Take `COc1ccc(C2CC(C(C)(C)C)=NN2c2ccc(S(N)(=O)=O)cc2)cc1` (configuration not stated) [KUC103450N]: the EC50 under setting [1] came out at 30 µM. That is a double-digit micromolar value.

For `NS(=O)(=O)c1ccc(N2N=C(c3ccccc3)CC2c2ccc(Cl)cc2)cc1` (configuration not stated) [4-[3-(4-chlorophenyl)-5-phenyl-3,4-dihydropyrazol-2-yl]benzenesulfonamide], the midpoint of the response under setting [1], the EC50, lay at 30 µM. That is a double-digit micromolar value.

`Clc1cccc(N2N=C(c3ccccc3)CC2c2ccccc2)c1` (configuration not stated) returned an EC50 under setting [1] of 30 µM. That is a double-digit micromolar value.

On to `Fc1ccccc1C1CC(c2ccc(Br)cc2)=NN1c1ccc(Br)cc1` (configuration not stated) [2,5-bis(4-bromophenyl)-3-(2-fluorophenyl)-3,4-dihydropyrazole], for which the EC50 under setting [1] came to 30 µM.

`COc1ccc(C2CC(c3ccccc3)=NN2c2ccc(S(N)(=O)=O)cc2)cc1OC` (configuration not stated) [UNM-0000305823] had an EC50 under setting [1] of 13.2 µM.

Consider `COc1ccc(C2CC(c3cccc(F)c3)=NN2c2ccc(S(N)(=O)=O)cc2)cc1` (configuration not stated) [4-[5-(3-fluorophenyl)-3-(4-methoxyphenyl)-3,4-dihydropyrazol-2-yl]benzenesulfonamide], for which, under setting [1], a half-maximal response (EC50) required 30 µM.

`COc1ccc(C2CC(c3ccc(Cl)cc3)=NN2c2ccc(S(N)(=O)=O)cc2)cc1` (configuration not stated): the EC50 under setting [1] is 30 µM.

Under setting [1], `COc1ccc(C2CC(c3ccccc3C(F)(F)F)=NN2c2ccc(S(N)(=O)=O)cc2)cc1` (configuration not stated) [KUC103474N] had an EC50 of 30 µM. That is a double-digit micromolar value.

As for `O=S(=O)(c1ccc(N2N=C(c3ccc(Br)cc3)CC2c2ccccc2)cc1)C(F)F` (configuration not stated) [5-(4-bromophenyl)-2-[4-(difluoromethylsulfonyl)phenyl]-3-phenyl-3,4-dihydropyrazole], a half-maximal response under setting [1] (EC50) required 30 µM.

Under setting [1], `COc1ccc(C2CC(c3ccccc3C)=NN2c2ccc(S(N)(=O)=O)cc2)cc1` (configuration not stated) [UNM-0000306152] came in with an EC50 of 30 µM.
